Results as given in patent publication US12122803B2, “Crystalline forms of a neuroactive steroid” (priority 2021, dated 2024).

What was measured:
Type in all cases: physicochemical
[1] = Competitive slurry experiments of Form S1 and Form S4; details: IPA, approximately equal amounts of Form S1 and Form S4
Procedure: To verify the transition temperature between Form S1 and Form S4 of Compound (1) calculated from the DSC data, competitive slurry experiments of Form S1 and Form S4 were performed.
In each experiment, slurries were generated using approximately equal amounts of Form S1 and Form S4. The forms were suspended in 0.3 mL of solvent in a 1.5 mL glass vial. […] The remaining solids were isolated via centrifugation (10000 rpm, 3 min) and analyzed using the XPRD analysis method described above.

[2] = Dynamic vapor sorption (DVS) analysis; details: for hygroscopicity by DVS / mass uptake by DVS / mass uptake by DVS expressed as equivalents of water: 25° C.; for hygroscopicity by DVS: up to 90% RH; for change of the XRPD pattern of the sample following the DVS analysis: after two sorption/desorption cycles at 25° C.; for mass uptake by DVS / mass uptake by DVS expressed as equivalents of water: at 90% RH
Procedure: Approximately 10-20 mg of sample was placed into a mesh vapor sorption balance pan and loaded into a DVS Intrinsic/Advantage dynamic vapor sorption balance by Surface Measurement Systems. The sample was subjected to a ramping profile from 40-90% relative humidity (RH) at 10% increments, maintaining the sample at each step until a stable weight had been achieved (dm/dt 0.004%, minimum step length 30 minutes, maximum step length 500 minutes) at 25° C. After completion of the sorption cycle, the sample was dried using the same procedure to 0% RH and then a second sorption cycle back to 40% RH. Two cycles were performed. The weight change during the sorption/desorption cycles were plotted, allowing for the hygroscopic nature of the sample to be determined. XRPD analysis was then carried out on any solid retained. The microbalance was calibrated monthly using a certified calibration weight and the relative humidity at 25° C. was calibrated against deliquescence point of LiCl, MgCl and NaCl. Data were not corrected for the initial water content of the sample, and data were shown according to the dry mass of the sample at 0% RH.

TGA analysis = details: up to 185° C., heating rate 10° C./min
Procedure: (§1) TGA data were collected using a TA Q500 TGA from TA Instruments, and DSC was conducted using a TA Q2000 DSC from TA Instruments. The TGA was calibrated with a nickel reference standard and the DSC was calibrated with an indium reference standard.

[3] = DSC analysis (form conversion under heating); details: TGA/DSC heating
Procedure: as §1

COC[C@@]1(O)CC[C@H]2[C@@H](CC[C@@H]3[C@@H]2CC[C@]2(C)[C@@H](C(=O)Cn4nnc(C)n4)CC[C@@H]32)C1 [Form S1 and Form S4]
Results: solid form remaining after competitive slurry (XRPD) ([1]; 60 ° C., time point 1 hr): Form S1 | Results: solid form remaining after competitive slurry (XRPD) ([1]; 70 ° C., time point 1 hr): Form S1 | Results: solid form remaining after competitive slurry (XRPD) ([1]; 80 ° C., time point not given): Form S4

COC[C@@]1(O)CC[C@H]2[C@@H](CC[C@@H]3[C@@H]2CC[C@]2(C)[C@@H](C(=O)Cn4nnc(C)n4)CC[C@@H]32)C1 [Form S1]
hygroscopicity by DVS [2]: substantially non-hygroscopic | change of the XRPD pattern of the sample following the DVS analysis [2]: No change | mass uptake by DVS [2]: ca. 0.6 wt. % | mass uptake by DVS expressed as equivalents of water [2]: 0.14 eq. water | Results: solid form remaining after competitive slurry (XRPD) ([1]; 80 ° C., time point not given): converted to Form S4 | weight loss on the TGA curve (TGA analysis): 0.1% | form conversion under heating conditions (thermal analyses) [3]: converts to Form S4

COC[C@@]1(O)CC[C@H]2[C@@H](CC[C@@H]3[C@@H]2CC[C@]2(C)[C@@H](C(=O)Cn4nnc(C)n4)CC[C@@H]32)C1 [Form S4]
hygroscopicity by DVS [2]: non-hygroscopic | change of the XRPD pattern of the sample following the DVS analysis [2]: No change | mass uptake by DVS [2]: ca. 0.12 wt. % | mass uptake by DVS expressed as equivalents of water [2]: 0.02 eq. water | Results: solid form remaining after competitive slurry (XRPD) ([1]; 60 ° C., time point 1 hr): converted to Form S1 | Results: solid form remaining after competitive slurry (XRPD) ([1]; 70 ° C., time point 1 hr): converted to Form S1 | weight loss on the TGA curve (TGA analysis): 0.1%
